Among the data in patent publication US12017997B2, “Host-targeted pan-respiratory antiviral small molecule therapeutics” (priority 2021, dated 2024) are EC50 and CC50 values, retold here.

Where two headings read alike, the source gives them in different places.

The test system of data set [1] is recombinant Nipah virus expressing ZsGreen fluorescence protein (rNiV-ZsG). Kind of data set: microbe, parasite or virus in culture. The conditions noted are these: Henipavirus nipahense, MRC5, 72 h, read-out: MRC-5 EC50.
A short description of data set [2]: Toxicity testing: cell viability, Alamar Blue HS. To be noted: human, MRC-5 cells (uninfected). A general note: Resazurin is reduced to fluorescent resorufin, in cell work by metabolically active cells.
The subject of data set [3] is recombinant Nipah virus expressing ZsGreen fluorescence protein (rNiV-ZsG). To be noted: human.
The subject of a further data set is MRC-5 cells. Nature of the data set: Toxicity testing: cell viability, Alamar Blue HS. The conditions noted are these: read-out: MRC-5 CC50; uninfected MRC-5 cells, 72 hours post-compound treatment.

One may read the EC50 as the midpoint of the concentration-response curve. One may read the CC50 as the concentration at which the toxic effect on the cells reaches its halfway point. Turning to `COc1c(CNC(=O)c2cc(C3CC3)nn2C)cccc1OCc1ccc(COC(=O)N2CCN(S(=O)(=O)CC(C)C)CC2)cc1` [Compound 173], in data set [1], the EC50 came out at 23.9 nM. Further, the CC50 at 72 h in data set [2] was > 5 µM. The corresponding values for `CC(=O)N1CCN(Cc2ccc(COc3cccc(CNC(=O)c4cc(C5CC5)nn4C)c3F)cc2)CC1` [Compound 13] are 628 nM and > 5 µM. Regarding `COc1c(CNC(=O)c2cc(C3CC3)nn2C)cccc1OCc1ccc(CN2CCN(S(=O)(=O)CC(C)C)CC2)cc1` [Compound 17], in data set [3], the EC50 is 29.7 nM. Also, in the data set on MRC-5 cells, the CC50 is > 5 µM.

Take `COc1c(CNC(=O)c2cc(C3CC3)nn2C)cccc1Oc1ccc(C(=O)N2CCN(S(C)(=O)=O)CC2)nn1` [Compound 133]: the EC50 in data set [1] stood at 6320 nM. Moreover, the 50% cytotoxic concentration (CC50) at 72 h in data set [2] is > 5 µM.

In the case of `COc1c(CNC(=O)c2cc(C3CC3)nn2C)cccc1OCc1ccc(C(=O)NC2CCN(S(C)(=O)=O)CC2)cc1` [Compound 94], the EC50 in data set [1] worked out at 1060 nM. Also, in data set [2], the CC50 at 72 h was > 5 µM. Consider `COc1c(CNC(=O)c2cc(C3CC3)nn2C)cccc1OCc1ccc(S(=O)(=O)N2CCN(C)CC2)cc1` [Compound 92], for which, in data set [1], the EC50 turned out to be 16700 nM. Besides, the CC50 at 72 h in data set [2] is > 5 µM. The corresponding values for `COc1c(CNC(=O)c2cc(C3CC3)nn2C)cccc1OCc1ccc(C(=O)N2CCC(N(C)S(C)(=O)=O)CC2)cc1` [Compound 96] are 16100 nM and > 5 µM.

Take `COc1c(CNC(=O)c2cc(C3CC3)nn2C)cccc1OCc1cccc(CN2CCN(C(C)=O)CC2)c1` [Compound 88]: the EC50 in data set [1] came to 144 nM. In data set [2], the CC50 at 72 h is > 5 µM. The corresponding values for `COc1c(CNC(=O)c2cc(C3CC3)nn2C)cccc1OCc1ccc(S(=O)(=O)N2CCN(S(C)(=O)=O)CC2)cc1` [Compound 91] are 1660 nM and > 5 µM. The like results for `COc1c(CNC(=O)c2cc(C3CC3)nn2C)cccc1OCc1ccc(CN2CCN(C)CC2)cc1` [Compound 23] were, in that order, 324 nM and > 5 µM. Consider `COc1c(CNC(=O)c2cc(C3CC3)nn2C)cccc1N(C)Cc1ccc(C(=O)N2CCN(S(C)(=O)=O)CC2)cc1` [Compound 113], for which the EC50 in data set [1] is 1500 nM. Besides, the CC50 at 72 h in data set [2] is > 5 µM. The like results for `COc1c(CNC(=O)c2cc(C3CC3)nn2C)cccc1OCc1ccc(C(=O)N2CCN(S(C)(=O)=O)CC2)cc1` [Compound 9] were, in that order, 508 nM and > 5 µM. For `COc1c(CNC(=O)c2cc(C3CC3)nn2C)cccc1OCc1ccc(CN2CCN(S(=O)(=O)CC(C)C)CC2)cc1` [Compound 19], in data set [3], the EC50 was 14.6 nM. Further, the CC50 at 72 h in data set [2] was > 5 µM. `CN1CCN(Cc2ccc(COc3ccc(CNC(=O)c4cc(C5CC5)nn4C)cc3Cl)cc2)CC1` [Compound 175]: the EC50 in data set [1] was 200 nM. Besides, the CC50 at 72 h in data set [2] is > 5 µM. As for `Cc1c(CNCc2cc(C3CC3)nn2C)cccc1OCc1ccc(C(=O)N2CCN(S(C)(=O)=O)CC2)cc1` [Compound 127], in data set [1], the EC50 was found to be 20000 nM. The CC50 at 72 h in data set [2] is > 5 µM. The like results for `COc1c(CNC(=O)c2cc(C3CC3)nn2C)cccc1OCc1ccc(COC(=O)N2CCN(C(C)=O)CC2)cc1` [Compound 174] were, in that order, 129 nM and > 5 µM. The corresponding values for `COc1c(CNC(=O)c2cc(C3CC3)nn2C)cccc1OCc1ccc(CN2CCCC2)cc1` [Compound 18] are 124 nM and > 5 µM. Turning to `Cn1nc(C2CC2)cc1C(=O)NCc1ccc(OCc2ccc(C(=O)N3CCN(S(C)(=O)=O)CC3)cc2)c(OC(F)(F)F)c1` [Compound 80], in data set [1], the EC50 was determined as 1440 nM. Moreover, the CC50 at 72 h in data set [2] was > 5 µM. For the molecule `COc1c(CNC(=O)c2cc(C3CC3)nn2C)cccc1N1CCN(S(C)(=O)=O)CC1` [Compound 118], the EC50 in data set [1] was 3850 nM. Further, in data set [2], the CC50 at 72 h is > 5 µM.

As for `Cn1nc(C2CC2)cc1C(=O)NCc1cccc(OCc2ccc(C(=O)N3CCN(S(C)(=O)=O)CC3)cc2)c1Cl` [Compound 63], the EC50 in data set [1] came out at 6820 nM. Also, the half-maximal cytotoxic concentration (CC50) at 72 h in data set [2] was > 5 µM. On to `COc1c(CNC(=O)c2cc(C3CC3)nn2C)cccc1OCc1ccc(OC(=O)N2CCN(S(C)(=O)=O)CC2)cc1` [Compound 128], for which, in data set [2], the CC50 at 72 h was > 5 µM.

Consider `COc1c(CNC(=O)c2cc(C3CC3)nn2C)cccc1OCc1ccc(C(=O)N2CCN(S(=O)(=O)CC(C)C)CC2C)cc1` (stereo not shown) [Compound 8], for which the EC50 in data set [1] amounted to 194 nM. Further, the CC50 at 72 h in data set [2] is > 5 µM.
